The record followed here is patent US10758534B2 (Vertex Pharmaceuticals Incorporated, priority 2014, dated 2020).

The target in one test is T1, F508del (Homo sapiens, UniProt P13569, DEL508-508).
T1 construct: expressed in transfected cells
T1 sequence (P13569 with tags, fused parts or gaps DEL508-508): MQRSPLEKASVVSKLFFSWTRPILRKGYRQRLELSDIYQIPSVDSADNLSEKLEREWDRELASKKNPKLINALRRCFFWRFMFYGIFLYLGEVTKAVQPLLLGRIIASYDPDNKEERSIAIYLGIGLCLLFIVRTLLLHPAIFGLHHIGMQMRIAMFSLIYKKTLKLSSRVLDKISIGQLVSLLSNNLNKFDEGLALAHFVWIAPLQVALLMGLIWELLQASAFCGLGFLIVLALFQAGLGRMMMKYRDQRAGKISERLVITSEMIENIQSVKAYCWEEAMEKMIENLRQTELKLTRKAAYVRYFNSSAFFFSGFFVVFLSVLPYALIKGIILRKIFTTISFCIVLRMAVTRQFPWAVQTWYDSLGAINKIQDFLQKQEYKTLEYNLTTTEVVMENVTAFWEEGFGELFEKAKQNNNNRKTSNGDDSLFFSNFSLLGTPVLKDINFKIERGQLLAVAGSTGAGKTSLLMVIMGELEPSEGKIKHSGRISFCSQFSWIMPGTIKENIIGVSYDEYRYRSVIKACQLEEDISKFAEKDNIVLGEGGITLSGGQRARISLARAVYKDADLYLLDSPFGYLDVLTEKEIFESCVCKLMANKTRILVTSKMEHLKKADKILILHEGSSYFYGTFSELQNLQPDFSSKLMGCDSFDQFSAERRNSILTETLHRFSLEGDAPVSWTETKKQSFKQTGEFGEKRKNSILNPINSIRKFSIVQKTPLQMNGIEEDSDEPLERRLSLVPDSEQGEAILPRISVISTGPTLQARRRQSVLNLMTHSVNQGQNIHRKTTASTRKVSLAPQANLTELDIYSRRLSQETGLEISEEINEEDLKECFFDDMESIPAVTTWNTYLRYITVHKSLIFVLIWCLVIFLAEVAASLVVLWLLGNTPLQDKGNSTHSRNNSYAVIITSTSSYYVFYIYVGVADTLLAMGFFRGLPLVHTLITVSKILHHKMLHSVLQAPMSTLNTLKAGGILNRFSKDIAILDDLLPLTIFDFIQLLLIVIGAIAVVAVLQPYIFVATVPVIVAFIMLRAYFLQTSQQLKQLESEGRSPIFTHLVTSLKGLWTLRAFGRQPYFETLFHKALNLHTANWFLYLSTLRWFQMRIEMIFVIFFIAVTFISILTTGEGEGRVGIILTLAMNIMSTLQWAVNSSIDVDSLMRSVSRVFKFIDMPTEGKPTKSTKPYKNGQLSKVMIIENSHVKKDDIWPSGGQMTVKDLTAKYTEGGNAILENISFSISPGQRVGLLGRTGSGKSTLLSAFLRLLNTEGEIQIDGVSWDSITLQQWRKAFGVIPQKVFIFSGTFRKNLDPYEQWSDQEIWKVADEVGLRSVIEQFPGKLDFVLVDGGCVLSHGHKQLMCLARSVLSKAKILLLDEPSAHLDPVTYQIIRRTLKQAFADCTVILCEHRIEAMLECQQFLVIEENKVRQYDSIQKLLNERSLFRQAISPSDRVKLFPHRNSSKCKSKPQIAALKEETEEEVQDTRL
As to the kind of experiment: Protocol 2: FRET membrane potential optical assay (VIPR), identification of correction compounds. Type of test: cell-based. Particulars: F508del CFTR modulator activity; compounds of Table 1; read-out: EC30. Summed up:
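Mouse NIH3T3 cells, stable F508del; cpd 16 hrs, 37° C., serum-free; pos ctrl 27° C. 16 hrs. Rinse in Krebs Ringers, dye load, then add 10 μM forskolin + 20 μM genistein with Cl^−-free (gluconate) medium; depolarization by FRET voltage dyes.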
`CC1CN(c2ncccc2C(=O)NS(=O)(=O)c2cccc(Nc3ccccc3)n2)C(C)(C)C1` (stereo not drawn) [Compound 2639, N-[(6-anilino-2-pyridyl)sulfonyl]-2-(2,2,4-trimethylpyrrolidin-1-yl)pyridine-3-carboxamide]: the EC30 is less than 3000 nM.

On to `CC1CN(c2ncccc2C(=O)NS(=O)(=O)c2cccc(Nc3ccccc3C#N)n2)C(C)(C)C1` (stereo not drawn) [Compound 2659, N—[[6-(2-cyanoanilino)-2-pyridyl]sulfonyl]-2-(2,2,4-trimethylpyrrolidin-1-yl)pyridine-3-carboxamide], for which the EC30 was 3000 to 10000 nM.

`C[C@@H]1CN(c2nc(-c3cccc(F)c3O)ccc2C(=O)NS(=O)(=O)c2cccnc2N)C(C)(C)C1` [Compound 2446, N-[(2-amino-3-pyridyl)sulfonyl]-6-(3-fluoro-2-hydroxy-phenyl)-2-[(4S)-2,2,4-trimethylpyrrolidin-1-yl]pyridine-3-carboxamide]: the 30% effect concentration (EC30) is less than 3000 nM.

On to `CCOc1ccccc1-c1ccc(C(=O)NS(=O)(=O)N2CC[C@H](N)C2)c(N2C[C@@H](C)CC2(C)C)n1` [Compound 2050, N-[(3S)-3-aminopyrrolidin-1-yl]sulfonyl-6-(2-ethoxyphenyl)-2-[(4S)-2,2,4-trimethylpyrrolidin-1-yl]pyridine-3-carboxamide], for which the concentration for an effect of 30% (EC30) is less than 3000 nM.

For the compound `CC1CN(c2ncccc2C(=O)NS(=O)(=O)c2cccc(OCc3cccc(Cl)c3)n2)C(C)(C)C1` (stereo not drawn) [Compound 2264, N—[[6-[(3-chlorophenyl)methoxy]-2-pyridyl]sulfonyl]-2-(2,2,4-trimethylpyrrolidin-1-yl)pyridine-3-carboxamide], the 30% effect concentration (EC30) was less than 3000 nM.

For `Cc1ccc(-c2ccc(C(=O)NS(=O)(=O)c3cccnc3N)c(N3C[C@@H](C)CC3(C)C)n2)c2ccccc12` [Compound 2126, N-[(2-amino-3-pyridyl)sulfonyl]-6-(4-methyl-1-naphthyl)-2-[(4S)-2,2,4-trimethylpyrrolidin-1-yl]pyridine-3-carboxamide], the EC30 is less than 3000 nM.

Regarding `CC1CN(c2ncccc2C(=O)NS(=O)(=O)c2cccc(OC3C=CCCC3)n2)C(C)(C)C1` (stereo not drawn) [Compound 2147, N-[(6-cyclohex-2-en-1-yloxy-2-pyridyl)sulfonyl]-2-(2,2,4-trimethylpyrrolidin-1-yl)pyridine-3-carboxamide], the EC30 was less than 3000 nM.

On to `C[C@@H]1CN(c2ncccc2C(=O)NS(=O)(=O)N2CCCC(NCc3ccc(OC(C)(C)C)cc3)C2)C(C)(C)C1` (stereo partly drawn) [Compound 2692], for which the EC30 was in the range of 3000 to 10000 nM.

As to `C[C@@H]1CN(c2nc(-c3ccc4c(c3)OCCO4)ccc2C(=O)NS(=O)(=O)c2cccnc2N)C(C)(C)C1` [Compound 2522, N-[(2-amino-3-pyridyl)sulfonyl]-6-(2,3-dihydro-1,4-benzodioxin-6-yl)-2-[(4S)-2,2,4-trimethylpyrrolidin-1-yl]pyridine-3-carboxamide], the concentration for an effect of 30% (EC30) is less than 3000 nM.

With `CC#CCOc1cccc(S(=O)(=O)NC(=O)c2cccnc2N2CC(C)CC2(C)C)n1` (stereo not drawn) [Compound 2741], the EC30 lay within 3000 to 10000 nM.

As for `C[C@@H]1CN(c2nc(-n3cc(OCC(C)(C)C)cn3)ccc2C(=O)NS(=O)(=O)c2cccnc2N)C(C)(C)C1` [Compound 2406, N-[(2-amino-3-pyridyl)sulfonyl]-6-[4-(2,2-dimethylpropoxy)pyrazol-1-yl]-2-[(4S)-2,2,4-trimethylpyrrolidin-1-yl]pyridine-3-carboxamide], the EC30 is less than 3000 nM.

On to `CC1CN(c2ncccc2C(=O)NS(=O)(=O)c2cccc(OCc3ccc4c(c3)OCO4)n2)C(C)(C)C1` (stereo not drawn) [Compound 2169, N—[[6-(1,3-benzodioxol-5-ylmethoxy)-2-pyridyl]sulfonyl]-2-(2,2,4-trimethylpyrrolidin-1-yl)pyridine-3-carboxamide], for which the EC30 was less than 3000 nM.

As to `CC1CN(c2ncccc2C(=O)NS(=O)(=O)c2cccc(Oc3cccc4[nH]ccc34)n2)C(C)(C)C1` (stereo not drawn) [Compound 2338, N—[[6-(1H-indol-4-yloxy)-2-pyridyl]sulfonyl]-2-(2,2,4-trimethylpyrrolidin-1-yl)pyridine-3-carboxamide], the EC30 is less than 3000 nM.

As for `C[C@@H]1CN(c2nc(-c3ccccc3OC(F)(F)F)ccc2C(=O)NS(=O)(=O)N2CC[C@H](N)C2)C(C)(C)C1` [Compound 2070, N-[(3S)-3-aminopyrrolidin-1-yl]sulfonyl-6-[2-(trifluoromethoxy)phenyl]-2-[(4S)-2,2,4-trimethylpyrrolidin-1-yl]pyridine-3-carboxamide], the EC30 is less than 3000 nM.

Staying with this test, now noted: Table 3; compounds of Table 1 as modulators of CFTR activity; protocol not stated.
With `CC(C)COc1cc(F)cc(-c2ccc(C(=O)NS(=O)(=O)c3ccn[nH]3)c(N3CCCC(C)C3)n2)c1` (stereo not drawn) [Compound 756, 6-(3-fluoro-5-isobutoxy-phenyl)-2-(3-methyl-1-piperidyl)-N-(1H-pyrazol-5-ylsulfonyl)pyridine-3-carboxamide], the 30% effect concentration (EC30) result is on record as “+++ (“+++” means <3 uM)”.

On to `Cc1ccc(-c2nc3c(cc2C(=O)NS(=O)(=O)c2cccc(N)n2)CCCC3(C)C)cc1` [Compound 444, N-[(6-amino-2-pyridyl)sulfonyl]-8,8-dimethyl-2-(p-tolyl)-6,7-dihydro-5H-quinoline-3-carboxamide], for which the EC30 entry was “++ (“++” means between 3 uM and 10 uM)”.

As for `Cc1cc(C)c(Oc2nc(C3(C(F)(F)F)CC3)ccc2C(=O)NS(=O)(=O)c2cccc(N)n2)c(C)c1` [Compound 621, N-[(6-amino-2-pyridyl)sulfonyl]-6-[1-(trifluoromethyl)cyclopropyl]-2-(2,4,6-trimethylphenoxy)pyridine-3-carboxamide], the EC30 entry is listed as “+++ (“+++” means <3 uM)”.

With `Cc1ccc(C(F)(F)F)c(Cn2nc(C(C)(C)C)cc2C(=O)NS(=O)(=O)c2ccccc2)c1` [Compound 304, N-(benzenesulfonyl)-5-tert-butyl-2-[[5-methyl-2-(trifluoromethyl)phenyl]methyl]pyrazole-3-carboxamide], the concentration for an effect of 30% (EC30) entry was “+++ (“+++” means <3 uM)”.

Turning to `Cc1cc(C)c(Oc2nc(-c3ccc(OC(C)C)cc3)ccc2C(=O)NS(=O)(=O)c2cccc(N)n2)c(C)c1` [Compound 436, N-[(6-amino-2-pyridyl)sulfonyl]-6-(4-isopropoxyphenyl)-2-(2,4,6-trimethylphenoxy)pyridine-3-carboxamide], the EC30 entry is recorded as “+++ (“+++” means <3 uM)”.

Take `CC(C)Oc1ccc(-c2ccc(C(=O)NS(=O)(=O)c3cccc(N)n3)c(N3CCC(c4ccccc4)CC3)n2)cn1` [Compound 742, N-[(6-amino-2-pyridyl)sulfonyl]-6-(6-isopropoxy-3-pyridyl)-2-(4-phenyl-1-piperidyl)pyridine-3-carboxamide]: the EC30 entry is “+++ (“+++” means <3 uM)”.

Take `Cc1cc(C)c(Oc2nc(-c3cccc(CN4CCCCC4)c3)ccc2C(=O)NS(=O)(=O)c2cccc(N)n2)c(C)c1` [Compound 686, N-[(6-amino-2-pyridyl)sulfonyl]-6-[13-(1-piperidylmethyl)phenyl]-2-(2,4,6-trimethylphenoxy)pyridine-3-carboxamide]: the EC30 entry is on record as “+++ (“+++” means <3 uM)”.

Turning to `Cc1cc(C)c(Cn2c(C(=O)NS(=O)(=O)c3cccc(N)c3)cc3cccnc32)c(C)c1` [Compound 184, N-(3-aminophenyl)sulfonyl-1-[(2,4,6-trimethylphenyl)methyl]pyrrolo[2,3-b]pyridine-2-carboxamide], the 30% effect concentration (EC30) result is “++ (“++” means between 3 uM and 10 uM)”.

With `Cc1cc(C)c(Oc2nc(C(F)(F)F)ccc2C(=O)NS(=O)(=O)c2ccccc2)c(C)c1` [Compound 244, N-(benzenesulfonyl)-6-(trifluoromethyl)-2-(2,4,6-trimethylphenoxy)pyridine-3-carboxamide], the 30% effect concentration (EC30) result was “+++ (“+++” means <3 uM)”.

Regarding `CC(C)Oc1ccc(-c2ccc(C(=O)NS(=O)(=O)c3cccc(N)n3)c(N3CC4C(C3)C4(C)C)n2)cn1` (stereo not drawn) [Compound 596, N-[(6-amino-2-pyridyl)sulfonyl]-2-(6,6-dimethyl-3-azabicyclo[3.1.0]hexan-3-yl)-6-(6-isopropoxy-3-pyridyl)pyridine-3-carboxamide], the EC30 entry is “++ (“++” means between 3 uM and 10 uM)”.

Turning to `Cc1cc(C)c(Oc2nc(C(C)(C)C)ccc2C(=O)NS(=O)(=O)c2cccc(N)c2)c(C#N)c1` [Compound 221, N-(3-aminophenyl)sulfonyl-6-tert-butyl-2-(2-cyano-4,6-dimethyl-phenoxy)pyridine-3-carboxamide], the 30% effect concentration (EC30) result is given as “+++ (“+++” means <3 uM)”.

Turning to `Cc1cccc(C)c1Cn1nc(-c2cccc(OC(C)C)c2)cc1C(=O)NS(=O)(=O)c1ccccc1` [Compound 133, N-(benzenesulfonyl)-2-[(2,6-dimethylphenyl)methyl]-5-(3-isopropoxyphenyl)pyrazole-3-carboxamide], the EC30 result is recorded as “+++ (“+++” means <3 uM)”.

For the compound `CCOc1ccc(-c2ccc(C(=O)NS(=O)(=O)c3cccc(N)n3)c(Oc3c(C)cc(C)cc3C)n2)c(F)c1` [Compound 602, N-[(6-amino-2-pyridyl)sulfonyl]-6-(4-ethoxy-2-fluoro-phenyl)-2-(2,4,6-trimethylphenoxy)pyridine-3-carboxamide], the EC30 result is on record as “+++ (“+++” means <3 uM)”.

Consider `CC(C)COc1cc(F)cc(-c2ccc(C(=O)NS(=O)(=O)c3ccc[nH]c3=O)c(N3C[C@@H](C)CC3(C)C)n2)c1` [Compound 492, 6-(3-fluoro-5-isobutoxy-phenyl)-N-[(2-oxo-1H-pyridin-3-yl)sulfonyl]-2-[(4S)-2,2,4-trimethylpyrrolidin-1-yl]pyridine-3-carboxamide], for which the EC30 entry was “+++ (“+++” means <3 uM)”.

With `CC(C)COc1cccc(-c2ccc(C(=O)NS(=O)(=O)c3cccc(N)n3)c(N3CC(C)CC3(C)C)n2)n1` (stereo not drawn) [Compound 397, N-[(6-amino-2-pyridyl)sulfonyl]-6-(6-isobutoxy-2-pyridyl)-2-(2,2,4-trimethylpyrrolidin-1-yl)pyridine-3-carboxamide], the EC30 entry is given as “+++ (“+++” means <3 uM)”.

As for `Cc1cc(C(C)(C)C)cc(C)c1Cn1nc(C(C)(C)C)cc1C(=O)NS(=O)(=O)c1cccc(N)c1` [Compound 156, N-(3-aminophenyl)sulfonyl-5-tert-butyl-2-[(4-tert-butyl-2,6-dimethyl-phenyl)methyl]pyrazole-3-carboxamide], the EC30 result was “+++ (“+++” means <3 uM)”.

Broadly, the EC30 is the concentration needed for an effect of 30%.
